Assay results from ChEMBL document CHEMBL1201862, “PubChem BioAssay data set” (2004).
Calls of active or inactive are those of the source.

Experiments:
[1] = target: Dual specificity protein phosphatase 3 (Homo sapiens, UniProt P51452); test: VHR phosphatase inhibition, dose response, selectivity assay for STEP inhibitor project, biochemical (AID 602374); assay type: functional; settings: read-out: IC50_Mean
[2] = target: T1, Tyrosine-protein phosphatase non-receptor type 11 (Homo sapiens, UniProt Q06124); test: PTPN11 enzyme inhibitors – biochemical, selectivity assay for STEP inhibitor project, dose response (AID 602367); assay type: functional; settings: read-out: IC50_Mean
T1 sequence (Q06124 whole entry): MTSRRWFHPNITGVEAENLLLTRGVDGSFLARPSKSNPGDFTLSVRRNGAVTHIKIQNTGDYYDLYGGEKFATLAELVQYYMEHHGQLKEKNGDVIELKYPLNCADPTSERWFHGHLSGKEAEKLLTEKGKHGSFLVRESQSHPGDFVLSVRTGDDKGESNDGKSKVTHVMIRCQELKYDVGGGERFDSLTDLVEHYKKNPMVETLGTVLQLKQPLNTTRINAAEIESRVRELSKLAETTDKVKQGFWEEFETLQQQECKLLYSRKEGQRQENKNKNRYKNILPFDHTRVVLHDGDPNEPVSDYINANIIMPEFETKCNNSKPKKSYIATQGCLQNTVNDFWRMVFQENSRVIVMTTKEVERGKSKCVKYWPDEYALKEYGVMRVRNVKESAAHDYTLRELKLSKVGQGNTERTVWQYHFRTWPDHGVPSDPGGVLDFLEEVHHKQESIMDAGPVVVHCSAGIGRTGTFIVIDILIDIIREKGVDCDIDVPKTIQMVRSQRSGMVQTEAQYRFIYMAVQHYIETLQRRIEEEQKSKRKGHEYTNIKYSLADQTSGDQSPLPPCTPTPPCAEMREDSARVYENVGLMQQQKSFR

[3] = target: T2, Carboxy-terminal domain RNA polymerase II polypeptide A small phosphatase 1 (Homo sapiens, UniProt Q9GZU7); test: CTDSP1 inhibitors, concentration-response, biochemical, absorbance readout, ultra-high-throughput screen actives (AID 540297); assay type: functional
T2 sequence (Q9GZU7 whole entry): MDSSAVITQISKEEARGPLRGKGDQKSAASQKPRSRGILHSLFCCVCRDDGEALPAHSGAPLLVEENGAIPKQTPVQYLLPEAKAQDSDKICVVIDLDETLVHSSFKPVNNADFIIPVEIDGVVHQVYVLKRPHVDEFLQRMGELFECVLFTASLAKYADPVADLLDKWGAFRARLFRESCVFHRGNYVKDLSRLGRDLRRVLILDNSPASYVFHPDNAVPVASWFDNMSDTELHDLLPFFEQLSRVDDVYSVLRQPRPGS

[4] = target: T3, Tyrosine-protein phosphatase non-receptor type 5 (Homo sapiens, UniProt P54829); test: PTPN5 enzyme inhibition – biochemical, fluorescence intensity, uHTS hits, confirmation (AID 602372); assay type: functional; settings: read-out: IC50_Mean
T3 sequence (P54829 whole entry): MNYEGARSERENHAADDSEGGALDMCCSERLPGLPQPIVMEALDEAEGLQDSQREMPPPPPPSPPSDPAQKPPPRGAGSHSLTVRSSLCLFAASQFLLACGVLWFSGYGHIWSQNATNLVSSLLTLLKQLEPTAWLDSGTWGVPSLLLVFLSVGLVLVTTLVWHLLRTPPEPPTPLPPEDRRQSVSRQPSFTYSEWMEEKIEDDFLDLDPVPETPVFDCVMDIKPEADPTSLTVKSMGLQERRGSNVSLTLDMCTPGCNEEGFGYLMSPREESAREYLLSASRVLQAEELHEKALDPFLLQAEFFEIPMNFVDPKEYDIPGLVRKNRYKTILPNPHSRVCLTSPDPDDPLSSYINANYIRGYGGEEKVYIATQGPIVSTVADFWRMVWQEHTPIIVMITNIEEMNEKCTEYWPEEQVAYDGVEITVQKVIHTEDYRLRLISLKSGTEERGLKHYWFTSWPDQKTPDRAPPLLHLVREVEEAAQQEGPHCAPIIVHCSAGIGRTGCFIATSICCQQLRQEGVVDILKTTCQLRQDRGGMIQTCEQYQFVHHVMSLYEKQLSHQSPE

cells = assay type: functional, cell-based; settings: HEK-CNG
Galanin receptor type 3 = target: T4, Galanin receptor type 3 (Homo sapiens, UniProt O60755); test: Fluorescence-based cell-based primary high throughput dose response assay to identify antagonists of the Galanin Receptor 3 (GalR3).; assay type: functional
T4 sequence (O60755 whole entry): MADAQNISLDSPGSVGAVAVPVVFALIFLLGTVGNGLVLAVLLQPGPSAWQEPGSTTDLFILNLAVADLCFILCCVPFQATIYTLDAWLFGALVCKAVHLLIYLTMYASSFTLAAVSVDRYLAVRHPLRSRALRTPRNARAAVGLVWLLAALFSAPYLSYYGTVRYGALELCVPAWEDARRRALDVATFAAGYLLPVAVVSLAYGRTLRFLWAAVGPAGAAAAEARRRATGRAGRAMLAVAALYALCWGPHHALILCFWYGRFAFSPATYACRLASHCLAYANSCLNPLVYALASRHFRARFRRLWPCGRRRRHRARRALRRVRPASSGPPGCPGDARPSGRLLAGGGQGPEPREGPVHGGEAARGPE

[5] = target: 72 kDa type IV collagenase (Homo sapiens, UniProt P08253); test: Dose Response validation of uHTS RPN11 inhibitor hits using a MMP-2 Fluorescence assay.; assay type: functional
[6] = target: 26S proteasome non-ATPase regulatory subunit 14 (Homo sapiens, UniProt O00487); test: inhibition of proteasome subunit RPN11 – biochemical, fluorescence polarization, uHTS hits, confirmation (AID 602368); assay type: functional
Prothrombin = Prothrombin (Bos taurus, UniProt P00735); test: thrombin protease inhibitors – biochemical, fluorescence polarization, uHTS hits, dose response (AID 602369); assay type: functional
[7] = target: T5, Endoribonuclease toxin MazF (Escherichia coli K-12, UniProt P0AE70); test: activation of MazEF endoribonuclease cleavage – biochemical, fluorescence, single-stranded RNA substrate, uHTS hits, dose response (AID 588481); assay type: functional
T5 sequence (P0AE70 whole entry): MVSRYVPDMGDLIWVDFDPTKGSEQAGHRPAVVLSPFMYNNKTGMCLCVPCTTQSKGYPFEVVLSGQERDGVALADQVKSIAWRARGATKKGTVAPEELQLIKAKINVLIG

[8] = target: T5, Endoribonuclease toxin MazF; test: substrate-only fluorescence increase artefacts – biochemical, single-stranded RNase substrate, counter-screen for MazEF activator project, dose response (AID 588502); assay type: functional

Chain of Dual specificity protein phosphatase 3 (P51452 whole entry): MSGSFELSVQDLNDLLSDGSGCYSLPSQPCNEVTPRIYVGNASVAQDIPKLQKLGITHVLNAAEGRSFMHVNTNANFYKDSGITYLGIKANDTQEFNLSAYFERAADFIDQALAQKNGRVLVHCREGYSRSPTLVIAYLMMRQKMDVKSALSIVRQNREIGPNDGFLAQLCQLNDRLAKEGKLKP
Chain of 72 kDa type IV collagenase (P08253 whole entry): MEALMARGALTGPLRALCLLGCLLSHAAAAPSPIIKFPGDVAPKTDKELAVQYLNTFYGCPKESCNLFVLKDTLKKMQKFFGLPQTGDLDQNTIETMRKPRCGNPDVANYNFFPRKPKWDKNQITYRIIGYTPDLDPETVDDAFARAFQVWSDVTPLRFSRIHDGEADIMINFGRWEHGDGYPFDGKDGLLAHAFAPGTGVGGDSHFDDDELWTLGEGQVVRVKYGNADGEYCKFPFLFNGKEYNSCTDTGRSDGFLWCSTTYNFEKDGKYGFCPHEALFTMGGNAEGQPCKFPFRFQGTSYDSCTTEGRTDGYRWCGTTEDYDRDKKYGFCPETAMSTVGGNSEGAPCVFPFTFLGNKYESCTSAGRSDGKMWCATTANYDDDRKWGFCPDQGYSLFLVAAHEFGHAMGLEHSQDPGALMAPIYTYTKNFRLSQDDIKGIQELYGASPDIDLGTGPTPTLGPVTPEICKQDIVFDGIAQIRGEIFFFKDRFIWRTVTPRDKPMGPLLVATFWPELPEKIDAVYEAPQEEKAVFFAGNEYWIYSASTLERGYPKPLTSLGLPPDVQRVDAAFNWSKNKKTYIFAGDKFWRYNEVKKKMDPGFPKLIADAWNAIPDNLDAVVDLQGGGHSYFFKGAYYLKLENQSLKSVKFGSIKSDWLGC
Chain of 26S proteasome non-ATPase regulatory subunit 14 (O00487 whole entry): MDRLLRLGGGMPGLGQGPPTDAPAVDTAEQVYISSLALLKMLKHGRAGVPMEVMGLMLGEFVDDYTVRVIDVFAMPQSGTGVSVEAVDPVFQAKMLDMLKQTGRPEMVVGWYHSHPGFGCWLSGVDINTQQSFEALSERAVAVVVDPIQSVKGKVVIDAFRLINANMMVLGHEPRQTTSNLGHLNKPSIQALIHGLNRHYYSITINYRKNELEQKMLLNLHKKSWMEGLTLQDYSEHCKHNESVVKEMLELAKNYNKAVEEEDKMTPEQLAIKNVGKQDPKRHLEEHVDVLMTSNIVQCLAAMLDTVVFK

O=C(COc1ccc([N+](=O)[O-])cc1)Nc1nnc(-c2cccnc2)s1
IC50 [1]: 4.25 µM (active)
IC50 [2]: 2.44 µM (active)
IC50 [3]: 5.51 µM (active)
IC50 [4]: 59.9 µM (inactive)

O=C(C(=O)c1cc(Br)ccc1O)c1cc(Br)ccc1O
EC50 (cells): > 29.9 µM (inactive)
IC50 (Galanin receptor type 3): 1.1 µM (active)

O=C(CCN1C(=O)/C(=C\c2cccs2)SC1=S)Nc1ccccn1
IC50 [5]: > 100 µM (inactive)
IC50 [6]: 9.93 µM (active)
IC50 (Prothrombin): 15.1 µM (active)

CC(C)(C)C(=O)Nc1ccc(C(=O)Nc2cccc(Oc3ccc(C(=O)O)c(C(=O)O)c3)c2)cc1
IC50 [1]: 38.4 µM (inactive)
IC50 [2]: 16.5 µM (active)
IC50 [4]: 13.6 µM (active)

Cc1ccc2c(n1)sc1c(-c3ccccc3)c(C#N)c(N)nc12
EC50 [7]: > 99 µM (inactive)
EC50 [8]: > 99 µM (inactive)
